# Results taken from ChEMBL document CHEMBL3430912, “GSK Tres Cantos Anti-Kinetoplastid Screening (TCAKS) Data”.
# Columns and labels:
# Trypanosoma cruzi [1] = experiment: (§1) GSK_TCAKS: pIC50 Trypanosoma cruzi Imaging: Amastigotes/Cell. […] Cells were then washed once with PBS before infection. T. cruzi trypomastigotes, collected at days 5 to 8 after infection from LLC-MK2 parasite infected cultures, were allowed to swim out for 4h at 37C from a centrifuged pellet (2,500 rpm/10 min/room temperature). Trypomastigotes were then collected and counted in a CASY Cell Counter. Trypomastigotes, in supplemented DMEM, were added to H9c2 cultures in a multiplicity of infection of 1 and incubated for 18 h. Cells were washed once with PBS before incubation of the infected H9c2 monolayer with trypsin (Life-Technologies) to detach cells from the flask. Cells were counted in a CASY Cell Counter using a 150 um capillary and their density set at 5 * 10^4 cells per mL in supplemented assay DMEM. Infected H9c2 were dispensed into 384-well poly-lysine coated assay plates at 50uL per well using a Multidrop Combi dispenser. After seeding them, the plates were incubated at 37C, 5% CO2 for 72h. Cultures were then fixed and stained by addition of 50 uL of a solution containing 8% formaldehyde and 4 uM DRAQ5 DNA dye (BioStatus, UK) per well. […] Five images were collected per well for reliable statistical analysis. Automated image analysis was performed with a script developed on Acapella High Content Imaging and Analysis Software (PerkinElmer). Output: number of amastigotes per cell as infection level measurement.; format: functional, organism-based, Rattus norvegicus; settings: H9c2, 4 h
# Trypanosoma cruzi [2] = experiment: as §1, with “H2C9” for “Trypanosoma cruzi”, “H9c2 Host Cardiomyocytes.” for “Amastigotes/Cell.”, “Number” for “number”, “H9c2 Host Cardiomyocytes nuclei to determine drug-related cytotoxicity.” for “amastigotes per cell as infection level measurement.”; format: functional, organism-based, Rattus norvegicus; settings: H9c2, 4 h
# [3] = test system: Trypanosoma brucei brucei; experiment: GSK_TCAKS: pIC50 Trypanosoma brucei viability assay using luminiscence. Assay plates (1536-well) were prepared. T. brucei cultures were harvested and counted in a CASY cell counter. A parasite suspension was prepared at a final concentration of 5 * 10^4 cells/mL in complete HMI9 medium and 6uL was dispensed to all wells containing compounds using a Multidrop Combi dispenser. 6uL of HMI9 media with 0.4% DMSO were dispensed to control columns. Plates were incubated for 24 h at 37C, 5% CO2 then tempered for 10 min at room temperature. ATP content was quantified by adding 4 uL of CellTiter-Glo Reagent (Promega) according to the manufacturer's instructions. Luminescence was measured using a ViewLux.; format: functional, organism-based; settings: Lister 427, CASY
# [4] = test system: Trypanosoma brucei brucei; experiment: GSK_TCAKS: pIC50 Trypanosoma brucei viability assay using fluorescence intensity. Assay plates (1536-well) were prepared by dispensing 25nL of compound solution per well using an Echo acoustic dispenser (Labcyte).; format: functional, organism-based; settings: Lister 427, 2 h
# Leishmania donovani [5] = experiment: (§2) GSK_TCAKS: pIC50 Leishmania donovani Imaging: Infected Macrophages. Assay plates (384-well) were prepared by adding 250nL of compound to each well. For single shot assay, the final compound concentration was 5 uM. […] Automated image analysis was performed with a script developed on Acapella High Content Imaging and Analysis Software (PerkinElmer). Output: Percent of infected macrophage cells were reported for each well.; format: functional, organism-based, Homo sapiens; settings: THP-1
# NIH3T3 = experiment: GSK_TCAKS: pIC50 NIH 3T3 cell line viability assay using luminiscence. Tissue culture surface treated assay plates (1536-well) were used. […] The 100% cells survival control was determined exposing the host-cells to a 0.5% DMSO concentration, whereas the 100% toxicity control was achieved by seeding the cells in presence of Amphotericin B at 50uM. Plates were incubated for four days at 37C, 5% CO2. The assay readout was developed by addition of 5uL of CellTiter-Glo Reagent following the manufacturer's instructions. Luminiscence was measured using a ViewLux.; format: functional, cell-based; settings: Mus musculus, NIH3T3, 96 h
# Leishmania donovani [6] = experiment: as §2, with “THP-1 Host” for “Infected”, “THP-1 cell count” for “Percent of infected macrophage cells”; format: functional, organism-based, Homo sapiens
# Leishmania donovani [7] = experiment: GSK_TCAKS: pIC50 Leishmania donovani viability assay using fluorescence intensity. Assay plates (1536-well) were prepared by adding 30nL per well of compound. For single shot assay, the final compound concentration was 5uM. […] Briefly, eGFP LdBOB axenic amastigotes were harvested, fixed and counted in a CASY cell counter (Roche-Applied Science). A final concentration of 1.5 * 10^5 cells per well were prepared in amastigote media containing 500 U/mL penicillin/streptomycin (Invitrogen) and 6uL was dispensed to each experimental well using a Multidrop Combi dispenser (Thermo Scientific). 6uL of assay media was dispensed to control columns used as reference for 100% compound response. Following incubation for 72 h at 37C, 5% CO2, 2 uL of resazurin was added to each well at a final concentration of 0.5 mM in phosphate buffered saline (PBS) with IGEPAL (Sigma-Aldrich), 0.05% (v/v).; format: functional, organism-based
# [8] = GSK_TCAKS: pIC50 HepG2 human cell line viability assay using luminiscence. […] Seeding density was checked to ensure that new mono-layers were not more than 50% confluent at the time of harvesting. Cell suspension was added to 500 mL of the same medium at a final density of 1.2 * 10^5 cells/mL. This cell suspension was dispensed (25 uL, 3000 cells per well) into 384-well clear-bottom plates using a Multidrop Combi dispenser. Prior to addition of the cell suspension, the screening compounds (250 nL) were pre-dispensed into the plates with an Echo liquid handler. Plates were incubated for 48 h at 37C, 5% CO2. After incubation, plates equilibrated at room temperature for 30 min before proceeding to develop the luminescent signal. The signal developer, CellTiter-Glo Reagent, was allowed to equilibrate at room temperature for 30 min and added to the plates (25uL per well) using a Multidrop Combi dispenser. Plates were left for 10 min at room temperature for stabilization and then read using a ViewLux.; format: toxicity, cell-based
# Leishmania donovani [9] = experiment: as §2, with “Amastigotes/Macrophages.” for “Infected Macrophages.”, “Average number” for “Percent”, “amastigotes per” for “infected”, “cell” for “cells”; format: functional, organism-based, Homo sapiens; settings: THP-1
# Trypanosoma cruzi [10] = experiment: GSK_TCAKS: pIC50 Trypanosoma cruzi viability assay using beta-GAL activity. This assay was run at single shot at 5uM compound concentration per well. The biological reagents consisted of NIH-3T3 host cells and trypomastigotes parasitic cells; both cell types were set to a 3.3 * 10^5 cells/mL dilution in assay DMEM by means of a CASY cell counter device using a 60um capillary. 6 uL of the mixture were dispensed per well (about 1 * 10^3 host-cells and 1 * 10^3 parasites) with a Multidrop Combi dispenser. […] In all wells, the percentage of DMSO never exceeded 0.5%. Plates incubated for four days at 37C, 5% CO2. The substrate used for the assay fluorescence intensity (FLINT) readout was resorufin-beta-D-galactopiranoside (Sigma-Aldrich) at 5uM per well. It was diluted in PBS supplemented with the soft detergent Igepal (Fluka).; format: functional, organism-based, Mus musculus; settings: Tulahuen, NIH3T3
# Trypanosoma cruzi [11] = experiment: GSK_TCAKS: pIC50 Trypanosoma cruzi Imaging: Infected Cells. […] Cells were then washed once with PBS before infection. T. cruzi trypomastigotes, collected at days 5 to 8 after infection from LLC-MK2 parasite infected cultures, were allowed to swim out for 4h at 37C from a centrifuged pellet (2,500 rpm/10 min/room temperature). Trypomastigotes were then collected and counted in a CASY Cell Counter. Trypomastigotes, in supplemented DMEM, were added to H9c2 cultures in a multiplicity of infection of 1 and incubated for 18 h. Cells were washed once with PBS before incubation of the infected H9c2 monolayer with trypsin (Life-Technologies) to detach cells from the flask. Cells were counted in a CASY Cell Counter using a 150 um capillary and their density set at 5 * 10^4 cells per mL in supplemented assay DMEM. Infected H9c2 were dispensed into 384-well poly-lysine coated assay plates at 50uL per well using a Multidrop Combi dispenser. After seeding them, the plates were incubated at 37C, 5% CO2 for 72h. Cultures were then fixed and stained by addition of 50 uL of a solution containing 8% formaldehyde and 4 uM DRAQ5 DNA dye (BioStatus, UK) per well. […] Five images were collected per well for reliable statistical analysis. Automated image analysis was performed with a script developed on Acapella High Content Imaging and Analysis Software (PerkinElmer). Output: percentage of infected cells per well as a second infection marker.; format: functional, organism-based, Rattus norvegicus; settings: H9c2, 4 h
# [12] = target: Sterol 14-alpha demethylase (Trypanosoma cruzi (strain CL Brener), UniProt Q7Z1V1); experiment: GSK_TCAKS: pIC50 CYP51 from Trypanosoma cruzi.; format: functional
# Sequence of Sterol 14-alpha demethylase (Q7Z1V1 whole entry): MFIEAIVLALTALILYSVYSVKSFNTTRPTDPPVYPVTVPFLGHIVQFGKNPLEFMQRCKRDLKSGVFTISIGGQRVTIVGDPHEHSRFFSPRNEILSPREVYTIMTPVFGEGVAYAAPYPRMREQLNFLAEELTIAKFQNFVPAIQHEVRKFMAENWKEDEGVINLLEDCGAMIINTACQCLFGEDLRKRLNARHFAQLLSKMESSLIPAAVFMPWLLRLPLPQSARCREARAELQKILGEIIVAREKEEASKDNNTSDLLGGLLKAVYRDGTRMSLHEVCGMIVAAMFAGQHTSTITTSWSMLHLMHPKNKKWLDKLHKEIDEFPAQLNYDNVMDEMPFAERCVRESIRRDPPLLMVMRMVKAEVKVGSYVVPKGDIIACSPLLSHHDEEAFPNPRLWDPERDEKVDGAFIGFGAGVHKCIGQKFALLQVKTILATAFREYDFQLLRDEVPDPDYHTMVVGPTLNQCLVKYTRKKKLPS
SMILES,IC50 (Trypanosoma cruzi [1]) [µM],IC50 (Trypanosoma cruzi [2]) [µM],IC50 [3] [µM],IC50 [4] [µM],IC50 (Leishmania donovani [5]) [µM],IC50 (NIH3T3) [µM],IC50 (Leishmania donovani [6]) [µM],IC50 (Leishmania donovani [7]) [µM],IC50 at 48 h [8] [µM],IC50 (Leishmania donovani [9]) [µM],IC50 (Trypanosoma cruzi [10]) [µM],IC50 (Trypanosoma cruzi [11]) [µM],IC50 [12] [µM]
COc1ccc2ncc(F)c(NC(=O)[C@]3(O)CC[C@@H](NCc4ccc5c(c4)OCCO5)CC3)c2n1,0.158,31.6,1.58,0.794,31.6,7.94,20,39.8,50.1,15.8,0.158,0.126,63.1
O=C(C1CCCCC1)N1CCN(c2nnc(-c3ccccc3)c3ccccc23)CC1,0.398,> 50.1,> 39.8,10,> 50.1,> 50.1,50.1,> 50.1,> 100,20,1,0.631,> 100
O=C(Cn1cnc2cc([N+](=O)[O-])ccc2c1=O)NCCc1ccc(Cl)cc1Cl,0.2,> 50.1,> 39.8,12.6,> 50.1,> 50.1,> 50.1,> 50.1,> 100,> 50.1,0.631,0.398,> 100
O=c1ccn(-c2ccc([N+](=O)[O-])cc2Cl)c2ccc(F)cc12,1.26,> 50.1,> 39.8,25.1,> 50.1,> 50.1,> 50.1,> 50.1,> 100,> 50.1,1.58,3.98,15.8
CN(C(=O)Nc1ccc2c(c1)CCN(C1CCC1)CC2)c1ccc(C#N)cc1,2,> 50.1,0.631,0.2,> 50.1,39.8,> 50.1,39.8,> 100,> 50.1,2,3.98,> 100
COc1ccc2nccc([C@H](O)CN3CC[C@H](NC(=O)c4ccc(Br)cc4)[C@@H](O)C3)c2n1,0.158,2,0.501,0.2,> 50.1,> 50.1,> 50.1,3.16,> 100,> 50.1,0.251,1.58,6.31
O=C(Nc1cccc(Cl)c1)N1CCCCC1c1cccnc1 (centres undefined),0.2,> 50.1,> 39.8,> 39.8,> 50.1,31.6,> 50.1,3.16,> 100,> 50.1,0.178,0.2,0.02
COc1ccc([N+](=O)[O-])cc1NC(=O)Nc1cccc(Cl)c1,0.398,> 50.1,20,6.31,> 50.1,> 50.1,50.1,> 50.1,> 100,> 50.1,0.794,10,> 100
